Patent publication US6825209B2, “Compounds having unique CB1 receptor binding selectivity and methods for their production and use” (Research Triangle Institute, priority 2002, dated 2004)
pKi: −log10 of the molar value. “And” between values parts separate entries of the source, which are not always exact repeats. Equal values may be shown once.

biological target: T1, cannabinoid receptors (Mus musculus, UniProt P47746); assay: Mouse vas deferens tissue assay (WIN55212-2 as agonist); details: not given
T1 construct: mediated by cannabinoid receptors located on prejunctional neurones; from tissue; host or cells: mouse isolated vas deferens
Text: Pharmacological characterization in isolated mouse vas deferens.
Introduction. The mouse isolated vas deferens can be used to determine both the potency and efficacy (maximum degree of inhibition produced) of cannabinoid receptor agonists. Because of its high sensitivity, this assay usually requires only microgram quantities of test material.
The inhibitory effect of cannabinoids on electrically evoked contractions is thought to be mediated by cannabinoid receptors located on prejunctional neurones rather than on the smooth muscle.
Experimental design. Isolated mouse vasa deferentia were used to determine the potency and efficacy of test compounds as inhibitors of electrically evoked contractions. […] Ability to antagonize was expressed in terms of the association constant (Kb) for the forward reaction between antagonist and cannabinoid receptors.
Methods. […] Electrical field stimulation was between platinum electrodes located at the upper and lower ends of each bath. The stimuli were generated by a Grass S48 stimulator, then amplified (Med-Lab channel attenuator) and finally divided to yield separate outputs to four organ baths (Med-Lab Stimusplitter). All contractions were recorded isometrically.
Concentration-response curves were constructed cumulatively.

T1 sequence (P47746 whole entry): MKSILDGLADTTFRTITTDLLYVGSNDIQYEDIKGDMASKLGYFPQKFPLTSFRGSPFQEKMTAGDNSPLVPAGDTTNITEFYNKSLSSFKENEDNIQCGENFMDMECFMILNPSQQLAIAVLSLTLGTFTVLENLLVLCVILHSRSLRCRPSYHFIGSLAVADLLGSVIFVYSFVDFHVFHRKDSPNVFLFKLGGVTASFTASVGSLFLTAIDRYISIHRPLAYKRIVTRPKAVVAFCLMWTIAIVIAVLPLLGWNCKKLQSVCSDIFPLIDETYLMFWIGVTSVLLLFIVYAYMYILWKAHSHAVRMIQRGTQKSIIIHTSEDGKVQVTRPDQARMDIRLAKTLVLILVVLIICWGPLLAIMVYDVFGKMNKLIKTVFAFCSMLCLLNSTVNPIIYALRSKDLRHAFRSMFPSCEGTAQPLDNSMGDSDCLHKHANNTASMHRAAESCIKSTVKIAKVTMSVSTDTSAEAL

Row | Compound | Kb [nM]
1 | CCCCCCCNC(=O)c1nn(-c2ccc(Cl)cc2Cl)c(-c2ccc(Cl)cc2)c1C [MF9725-133-25] | 83.9

same assay, conditions: isolated mouse vas deferens; WIN55212-2 as agonist; Schild equation

Row | Compound | Kb
2 | CCCCCCCNC(=O)c1nn(-c2ccc(Cl)cc2Cl)c(-c2ccc(Cl)cc2)c1C [MF9725-133-25] | no effect

same assay, conditions: isolated mouse vas deferens; WIN55212-2 as agonist; Schild equation; read-out: Kb

Row | Compound | Kb [nM]
3 | CCCCNC(=O)c1nn(-c2ccc(Cl)cc2Cl)c(-c2ccc(Cl)cc2)c1C [MF9725-64-17] | 21.2
4 | CCCCCCNC(=O)c1nn(-c2ccc(Cl)cc2Cl)c(-c2ccc(Cl)cc2)c1C [MF9725-132-25] | 15.4
5 | Cc1c(C(=O)NC2CCCCC2)nn(-c2ccc(Cl)cc2Cl)c1-c1ccc(Cl)cc1 [MF9725-66-11] | 1.2
6 | Cc1c(C(=O)NN2CCOCC2)nn(-c2ccc(Cl)cc2Cl)c1-c1ccc(Cl)cc1 [MF9725-33D] | 12.5

same assay, conditions: isolated mouse vas deferens; in the absence of WIN55212-2

Row | Compound | % Inverse Effect
7 | CCCCNC(=O)c1nn(-c2ccc(Cl)cc2Cl)c(-c2ccc(Cl)cc2)c1C [MF9725-64-17] | 28.2%
8 | CCCCCCNC(=O)c1nn(-c2ccc(Cl)cc2Cl)c(-c2ccc(Cl)cc2)c1C [MF9725-132-25] | 30.1%
9 | Cc1c(C(=O)NC2CCCCC2)nn(-c2ccc(Cl)cc2Cl)c1-c1ccc(Cl)cc1 [MF9725-66-11] | 55.5%
10 | Cc1c(C(=O)NN2CCOCC2)nn(-c2ccc(Cl)cc2Cl)c1-c1ccc(Cl)cc1 [MF9725-33D] | 82.5%
11 | CCCCCCCNC(=O)c1nn(-c2ccc(Cl)cc2Cl)c(-c2ccc(Cl)cc2)c1C [MF9725-133-25] | 50.6% and 37.8%

same assay, conditions: shift of the WIN55212-2 dose response curve; isolated mouse vas deferens

Row | Compound | Dextral Shift
12 | CCCCNC(=O)c1nn(-c2ccc(Cl)cc2Cl)c(-c2ccc(Cl)cc2)c1C [MF9725-64-17] | no effect
13 | CCCCCCNC(=O)c1nn(-c2ccc(Cl)cc2Cl)c(-c2ccc(Cl)cc2)c1C [MF9725-132-25] | no effect
14 | Cc1c(C(=O)NC2CCCCC2)nn(-c2ccc(Cl)cc2Cl)c1-c1ccc(Cl)cc1 [MF9725-66-11] | 26.7
15 | Cc1c(C(=O)NN2CCOCC2)nn(-c2ccc(Cl)cc2Cl)c1-c1ccc(Cl)cc1 [MF9725-33D] | 26.3

same assay, conditions: shift of the WIN55212-2 dose response curve; isolated mouse vas deferens; listed as heptyl analog

Row | Compound | Dextral Shift
16 | CCCCCCCNC(=O)c1nn(-c2ccc(Cl)cc2Cl)c(-c2ccc(Cl)cc2)c1C [MF9725-133-25] | failed to produce an effect

tested on: CB1 versus CB2 receptors; assay: Relative selectivity of the analogs for CB1 versus CB2 receptors; details: CB1 versus CB2 binding, Tables 1, 6 and 7
Text: Human CB2 receptor affinity. The relative selectivity of the analogs for CB1 versus CB2 receptors varied modestly regardless of the structural modifications examined to date.

Row | Compound | CB1 selectivity (CB1 versus CB2) [fold]
17 | Cc1c(C(=O)NC2CCCCC2)nn(-c2ccc(Cl)cc2Cl)c1-c1ccc(Cl)cc1 [MF9725-66-11] | 93

biological target: T2, CB1 receptor (Rattus norvegicus, UniProt P20272); assay: Radioligand displacement in whole rat brain (CB1) membrane preparations; type: binding; details: Ki, displacement of 3H-CP55940, whole rat brain membranes; radioligand 3H-CP55940; Tables 1 and 2
T2 construct: Whole rat brains or dissected regions from live CD rats; tissue Charles River or Pel-Freez Biologicals; host or cells: whole rat brain (CD rats), P2 membrane
Outline: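 Washed P2 membranes from whole rat brain (ca. 0.2 mg/mL) in 50 mM Tris.HCl, 1 mM EDTA, 3 mM MgCl2, pH 7.4 were incubated with radioligand and compound for 1 h at 30 °C, then filtered. IC50 values came from one- or two-site nonlinear fits and were converted to Ki by Cheng-Prusoff. Duplicates were run across 3–6 experiments.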

T2 sequence (P20272 whole entry): as the sequence (P47746 whole entry) above, with D95E counted along it

Row | Compound | pKi
18 | CCCCCCCNC(=O)c1nn(-c2ccc(Cl)cc2Cl)c(-c2ccc(Cl)cc2)c1C [MF9725-133-25] | 7.34

same assay, conditions: Ki, displacement of 3H-SR141716A, whole rat brain membranes; radioligand 3H-SR141716A; Tables 1 and 2

Row | Compound | pKi
19 | CCCCCCCNC(=O)c1nn(-c2ccc(Cl)cc2Cl)c(-c2ccc(Cl)cc2)c1C [MF9725-133-25] | 7.72

same assay, conditions: Ki, displacement of 3H-WIN55212-2, whole rat brain membranes; radioligand 3H-WIN55212-2; Tables 1 and 2

Row | Compound | pKi
20 | CCCCNC(=O)c1nn(-c2ccc(Cl)cc2Cl)c(-c2ccc(Cl)cc2)c1C [MF9725-64-17] | 7.48
21 | CCCCCCNC(=O)c1nn(-c2ccc(Cl)cc2Cl)c(-c2ccc(Cl)cc2)c1C [MF9725-132-25] | 7.78
22 | Cc1c(C(=O)NC2CCCCC2)nn(-c2ccc(Cl)cc2Cl)c1-c1ccc(Cl)cc1 [MF9725-66-11] | 8.65
23 | Cc1c(C(=O)NCC(C)C)nn(-c2ccc(Cl)cc2Cl)c1-c1ccc(Cl)cc1 [MF9725-68-10] | 7.33
24 | CCCCCCCNC(=O)c1nn(-c2ccc(Cl)cc2Cl)c(-c2ccc(Cl)cc2)c1C [MF9725-133-25] | 7.54
25 | Cc1c(C(=O)NC(C)C)nn(-c2ccc(Cl)cc2Cl)c1-c1ccc(Cl)cc1 [MF9725-65-11] | 7.44

same assay, conditions: read-out: Ki, displacement of 3H-CP55940; whole rat brain membranes; radioligand 3H-CP55940; Tables 1 and 2

Row | Compound | pKi
26 | CCCCNC(=O)c1nn(-c2ccc(Cl)cc2Cl)c(-c2ccc(Cl)cc2)c1C [MF9725-64-17] | 7.87
27 | CCCCCCNC(=O)c1nn(-c2ccc(Cl)cc2Cl)c(-c2ccc(Cl)cc2)c1C [MF9725-132-25] | 7.74
28 | Cc1c(C(=O)NC2CCCCC2)nn(-c2ccc(Cl)cc2Cl)c1-c1ccc(Cl)cc1 [MF9725-66-11] | 8.61
29 | Cc1c(C(=O)NN2CCOCC2)nn(-c2ccc(Cl)cc2Cl)c1-c1ccc(Cl)cc1 [MF9725-33D] | 7.64
30 | Cc1c(C(=O)NCC(C)C)nn(-c2ccc(Cl)cc2Cl)c1-c1ccc(Cl)cc1 [MF9725-68-10] | 7.94
31 | Cc1c(C(=O)NC(C)C)nn(-c2ccc(Cl)cc2Cl)c1-c1ccc(Cl)cc1 [MF9725-65-11] | 7.53

same assay, conditions: read-out: Ki, displacement of 3H-SR141716A; whole rat brain membranes; radioligand 3H-SR141716A; Tables 1 and 2

Row | Compound | pKi
32 | CCCCNC(=O)c1nn(-c2ccc(Cl)cc2Cl)c(-c2ccc(Cl)cc2)c1C [MF9725-64-17] | 7.89
33 | CCCCCCNC(=O)c1nn(-c2ccc(Cl)cc2Cl)c(-c2ccc(Cl)cc2)c1C [MF9725-132-25] | 7.97
34 | Cc1c(C(=O)NC2CCCCC2)nn(-c2ccc(Cl)cc2Cl)c1-c1ccc(Cl)cc1 [MF9725-66-11] | 8.97
35 | Cc1c(C(=O)NN2CCOCC2)nn(-c2ccc(Cl)cc2Cl)c1-c1ccc(Cl)cc1 [MF9725-33D] | 7.68
36 | Cc1c(C(=O)NCC(C)C)nn(-c2ccc(Cl)cc2Cl)c1-c1ccc(Cl)cc1 [MF9725-68-10] | 8.04
37 | Cc1c(C(=O)NC(C)C)nn(-c2ccc(Cl)cc2Cl)c1-c1ccc(Cl)cc1 [MF9725-65-11] | 7.89

same assay, conditions: whole rat brain membranes; radioligand 3H-CP55940; Tables 1 and 2

Row | Compound | Max. Disp. %, 3H-CP55940 [%]
38 | CCCCNC(=O)c1nn(-c2ccc(Cl)cc2Cl)c(-c2ccc(Cl)cc2)c1C [MF9725-64-17] | 91.9
39 | CCCCCCNC(=O)c1nn(-c2ccc(Cl)cc2Cl)c(-c2ccc(Cl)cc2)c1C [MF9725-132-25] | 87.3
40 | Cc1c(C(=O)NC2CCCCC2)nn(-c2ccc(Cl)cc2Cl)c1-c1ccc(Cl)cc1 [MF9725-66-11] | 96.1
41 | Cc1c(C(=O)NN2CCOCC2)nn(-c2ccc(Cl)cc2Cl)c1-c1ccc(Cl)cc1 [MF9725-33D] | 96.2
42 | Cc1c(C(=O)NCC(C)C)nn(-c2ccc(Cl)cc2Cl)c1-c1ccc(Cl)cc1 [MF9725-68-10] | 96.7
43 | CCCCCCCNC(=O)c1nn(-c2ccc(Cl)cc2Cl)c(-c2ccc(Cl)cc2)c1C [MF9725-133-25] | 81.7
44 | Cc1c(C(=O)NC(C)C)nn(-c2ccc(Cl)cc2Cl)c1-c1ccc(Cl)cc1 [MF9725-65-11] | 88.3

same assay, conditions: whole rat brain membranes; radioligand 3H-SR141716A; Tables 1 and 2

Row | Compound | Max. Disp. %, 3H-SR141716A [%]
45 | CCCCNC(=O)c1nn(-c2ccc(Cl)cc2Cl)c(-c2ccc(Cl)cc2)c1C [MF9725-64-17] | 100
46 | CCCCCCNC(=O)c1nn(-c2ccc(Cl)cc2Cl)c(-c2ccc(Cl)cc2)c1C [MF9725-132-25] | 98.6
47 | Cc1c(C(=O)NC2CCCCC2)nn(-c2ccc(Cl)cc2Cl)c1-c1ccc(Cl)cc1 [MF9725-66-11] | 100
48 | Cc1c(C(=O)NN2CCOCC2)nn(-c2ccc(Cl)cc2Cl)c1-c1ccc(Cl)cc1 [MF9725-33D] | 100
49 | Cc1c(C(=O)NCC(C)C)nn(-c2ccc(Cl)cc2Cl)c1-c1ccc(Cl)cc1 [MF9725-68-10] | 100
50 | CCCCCCCNC(=O)c1nn(-c2ccc(Cl)cc2Cl)c(-c2ccc(Cl)cc2)c1C [MF9725-133-25] | 97.9
51 | Cc1c(C(=O)NC(C)C)nn(-c2ccc(Cl)cc2Cl)c1-c1ccc(Cl)cc1 [MF9725-65-11] | 100

same assay, conditions: whole rat brain membranes; radioligand 3H-WIN55212-2; Tables 1 and 2

Row | Compound | Max. Disp. %, 3H-WIN55212-2 [%]
52 | CCCCNC(=O)c1nn(-c2ccc(Cl)cc2Cl)c(-c2ccc(Cl)cc2)c1C [MF9725-64-17] | 90.8
53 | CCCCCCNC(=O)c1nn(-c2ccc(Cl)cc2Cl)c(-c2ccc(Cl)cc2)c1C [MF9725-132-25] | 77.9
54 | Cc1c(C(=O)NC2CCCCC2)nn(-c2ccc(Cl)cc2Cl)c1-c1ccc(Cl)cc1 [MF9725-66-11] | 92.6
55 | Cc1c(C(=O)NCC(C)C)nn(-c2ccc(Cl)cc2Cl)c1-c1ccc(Cl)cc1 [MF9725-68-10] | 90.9
56 | CCCCCCCNC(=O)c1nn(-c2ccc(Cl)cc2Cl)c(-c2ccc(Cl)cc2)c1C [MF9725-133-25] | 69.6
57 | Cc1c(C(=O)NC(C)C)nn(-c2ccc(Cl)cc2Cl)c1-c1ccc(Cl)cc1 [MF9725-65-11] | 90.6
